Assay results reported in ChEMBL document CHEMBL4507316 (2021).
pKi: −log10 of the molar value. Active and inactive are the calls of the source. The calls are words filed in the database; no cut-off is given here.

Columns and labels:
[1] = target: cAMP-dependent protein kinase catalytic subunit alpha (Homo sapiens) (UniProt P17612); assay: PKA ProQinase selectivity panel; conditions: Compound concentration 1.0 uM
[2] = target: Myotonin-protein kinase (Homo sapiens) (UniProt Q09013); assay: DMPK ProQinase selectivity panel; conditions: Compound concentration 1.0 uM
[3] = target: Ephrin type-B receptor 1 (Homo sapiens) (UniProt P54762); assay: EPHB1 ProQinase selectivity panel; conditions: Compound concentration 1.0 uM
[4] = target: Testis-specific serine/threonine-protein kinase 1 (Homo sapiens) (UniProt Q9BXA7); assay: TSSK1 ProQinase selectivity panel; conditions: Compound concentration 1.0 uM
[5] = target: Phosphorylase b kinase gamma catalytic chain, liver/testis isoform (Homo sapiens) (UniProt P15735); assay: PHKG2 ProQinase selectivity panel; conditions: Compound concentration 1.0 uM
[6] = target: Tyrosine-protein kinase FRK (Homo sapiens) (UniProt P42685); assay: FRK ProQinase selectivity panel; conditions: Compound concentration 1.0 uM
[7] = target: Ephrin type-B receptor 3 (Homo sapiens) (UniProt P54753); assay: EPHB3 ProQinase selectivity panel; conditions: Compound concentration 1.0 uM
[8] = tested on: Hepatocyte growth factor receptor (Homo sapiens), P08581 [Y1230A]; assay: MET Y1230A ProQinase selectivity panel; conditions: Compound concentration 1.0 uM
[9] = target: Ribosomal protein S6 kinase alpha-4 (Homo sapiens) (UniProt O75676); assay: RPS6KA4 ProQinase selectivity panel; conditions: Compound concentration 1.0 uM
[10] = tested on: Serine/threonine-protein kinase B-raf (Homo sapiens), P15056 [V600E]; assay: B-RAF V600E ProQinase selectivity panel; conditions: Compound concentration 1.0 uM
[11] = target: Mitogen-activated protein kinase 11 (Homo sapiens, UniProt Q15759); assay: NanoBRET (MAPK11)
[12] = target: LIM domain kinase 1 (Homo sapiens) (UniProt P53667); assay: LIMK1 ProQinase selectivity panel; conditions: Compound concentration 1.0 uM
[13] = target: Mitogen-activated protein kinase kinase kinase 2 (Homo sapiens) (UniProt Q9Y2U5); assay: MEKK2 ProQinase selectivity panel; conditions: Compound concentration 1.0 uM
[14] = target: Sigma intracellular receptor 2 (Homo sapiens, UniProt Q5BJF2); assay: GPCRScan assay: inhibition of Sigma 2; parameters: radioligand conc. used [nm] 5.0, parental cells HEKT
[15] = target: Mitogen-activated protein kinase 14 (Homo sapiens) (UniProt Q16539); assay: p38-alpha ProQinase selectivity panel; conditions: Compound concentration 1.0 uM
[16] = target: Calcium/calmodulin-dependent protein kinase type II subunit beta (Homo sapiens) (UniProt Q13554); assay: CAMK2B ProQinase selectivity panel; conditions: Compound concentration 1.0 uM
[17] = target: Rhodopsin kinase GRK7 (Homo sapiens) (UniProt Q8WTQ7); assay: GRK7 ProQinase selectivity panel; conditions: Compound concentration 1.0 uM
[18] = target: Serine/threonine-protein kinase Nek11 (Homo sapiens) (UniProt Q8NG66); assay: NEK11 ProQinase selectivity panel; conditions: Compound concentration 1.0 uM
[19] = target: Serine/threonine-protein kinase 16 (Homo sapiens) (UniProt O75716); assay: TSF1 ProQinase selectivity panel; conditions: Compound concentration 1.0 uM
[20] = target: Muscarinic acetylcholine receptor M1 (Homo sapiens) (UniProt P11229); conditions: Compound concentration 10.0 uM
[21] = target: Mitogen-activated protein kinase 1 (Homo sapiens) (UniProt P28482); assay: ERK2 ProQinase selectivity panel; conditions: Compound concentration 1.0 uM
[22] = target: Beta-1 adrenergic receptor (Homo sapiens) (UniProt P08588); conditions: Compound concentration 10.0 uM
[23] = target: Protein-tyrosine kinase 2-beta (Homo sapiens) (UniProt Q14289); assay: PYK2 ProQinase selectivity panel; conditions: Compound concentration 1.0 uM
[24] = target: Serine/threonine-protein kinase NLK (Homo sapiens) (UniProt Q9UBE8); assay: NLK ProQinase selectivity panel; conditions: Compound concentration 1.0 uM
[25] = target: MAP kinase-activated protein kinase 3 (Homo sapiens) (UniProt Q16644); assay: MAPKAPK3 ProQinase selectivity panel; conditions: Compound concentration 1.0 uM
[26] = target: Ephrin type-B receptor 4 (Homo sapiens) (UniProt P54760); assay: EPHB4 ProQinase selectivity panel; conditions: Compound concentration 1.0 uM
[27] = target: D(3) dopamine receptor (Homo sapiens) (UniProt P35462); conditions: Compound concentration 10.0 uM
[28] = target: Mitogen-activated protein kinase 9 (Homo sapiens) (UniProt P45984); assay: JNK2 ProQinase selectivity panel; conditions: Compound concentration 1.0 uM
[29] = target: cGMP-dependent protein kinase 1 (Homo sapiens) (UniProt Q13976); assay: PRKG1 ProQinase selectivity panel; conditions: Compound concentration 1.0 uM
[30] = target: Dual specificity tyrosine-phosphorylation-regulated kinase 1B (Homo sapiens) (UniProt Q9Y463); assay: DYRK1B ProQinase selectivity panel; conditions: Compound concentration 1.0 uM
[31] = target: Alpha-2C adrenergic receptor (Homo sapiens) (UniProt P18825); conditions: Compound concentration 10.0 uM
[32] = target: Calcium/calmodulin-dependent protein kinase type IV (Homo sapiens) (UniProt Q16566); assay: CAMK4 ProQinase selectivity panel; conditions: Compound concentration 1.0 uM
[33] = tested on: Epidermal growth factor receptor (Homo sapiens), P00533 [G719S]; assay: EGF-R G719S ProQinase selectivity panel; conditions: Compound concentration 1.0 uM
[34] = target: Interleukin-1 receptor-associated kinase 4 (Homo sapiens) (UniProt Q9NWZ3); assay: IRAK4 ProQinase selectivity panel; conditions: Compound concentration 1.0 uM
[35] = target: Macrophage-stimulating protein receptor (Homo sapiens) (UniProt Q04912); assay: RON ProQinase selectivity panel; conditions: Compound concentration 1.0 uM
[36] = target: Dual serine/threonine and tyrosine protein kinase (Homo sapiens) (UniProt Q6XUX3); assay: RIPK5 ProQinase selectivity panel; conditions: Compound concentration 1.0 uM
[37] = target: Activated CDC42 kinase 1 (Homo sapiens) (UniProt Q07912); assay: ACK1 ProQinase selectivity panel; conditions: Compound concentration 1.0 uM
[38] = target: Delta-type opioid receptor (Homo sapiens) (UniProt P41143); conditions: Compound concentration 10.0 uM
[39] = target: Testis-specific serine/threonine-protein kinase 2 (Homo sapiens) (UniProt Q96PF2); assay: TSK2 ProQinase selectivity panel; conditions: Compound concentration 1.0 uM
[40] = target: Myosin light chain kinase (Homo sapiens) (UniProt Q32MK0); assay: MYLK3 ProQinase selectivity panel; conditions: Compound concentration 1.0 uM
[41] = target: Mitogen-activated protein kinase kinase kinase 3 (Homo sapiens) (UniProt Q99759); assay: MEKK3 ProQinase selectivity panel; conditions: Compound concentration 1.0 uM
[42] = target: Ephrin type-A receptor 4 (Homo sapiens) (UniProt P54764); assay: EPHA4 ProQinase selectivity panel; conditions: Compound concentration 1.0 uM
[43] = target: Beta-adrenergic receptor kinase 1 (Homo sapiens) (UniProt P25098); assay: GRK2 ProQinase selectivity panel; conditions: Compound concentration 1.0 uM
[44] = target: RAC-beta serine/threonine-protein kinase (Homo sapiens) (UniProt P31751); assay: AKT2 ProQinase selectivity panel; conditions: Compound concentration 1.0 uM
[45] = target: Histamine H3 receptor (Homo sapiens) (UniProt Q9Y5N1); conditions: Compound concentration 10.0 uM
[46] = target: Ribosomal protein S6 kinase alpha-6 (Homo sapiens) (UniProt Q9UK32); assay: RPS6KA6 ProQinase selectivity panel; conditions: Compound concentration 1.0 uM
[47] = target: Serine/threonine-protein kinase PAK 4 (Homo sapiens) (UniProt O96013); assay: PAK4 ProQinase selectivity panel; conditions: Compound concentration 1.0 uM
[48] = target: Cyclin-dependent kinase 5/CDK5 activator 1 (Homo sapiens) (UniProt Q00535+Q15078); assay: CDK5/p35NCK ProQinase selectivity panel; assay type: protein-complex assay; conditions: Compound concentration 1.0 uM
[49] = target: Vascular endothelial growth factor receptor 2 (Homo sapiens) (UniProt P35968); assay: VEGF-R2 ProQinase selectivity panel; conditions: Compound concentration 1.0 uM
Chain of Vascular endothelial growth factor receptor 2 (Homo sapiens) (P35968 whole entry): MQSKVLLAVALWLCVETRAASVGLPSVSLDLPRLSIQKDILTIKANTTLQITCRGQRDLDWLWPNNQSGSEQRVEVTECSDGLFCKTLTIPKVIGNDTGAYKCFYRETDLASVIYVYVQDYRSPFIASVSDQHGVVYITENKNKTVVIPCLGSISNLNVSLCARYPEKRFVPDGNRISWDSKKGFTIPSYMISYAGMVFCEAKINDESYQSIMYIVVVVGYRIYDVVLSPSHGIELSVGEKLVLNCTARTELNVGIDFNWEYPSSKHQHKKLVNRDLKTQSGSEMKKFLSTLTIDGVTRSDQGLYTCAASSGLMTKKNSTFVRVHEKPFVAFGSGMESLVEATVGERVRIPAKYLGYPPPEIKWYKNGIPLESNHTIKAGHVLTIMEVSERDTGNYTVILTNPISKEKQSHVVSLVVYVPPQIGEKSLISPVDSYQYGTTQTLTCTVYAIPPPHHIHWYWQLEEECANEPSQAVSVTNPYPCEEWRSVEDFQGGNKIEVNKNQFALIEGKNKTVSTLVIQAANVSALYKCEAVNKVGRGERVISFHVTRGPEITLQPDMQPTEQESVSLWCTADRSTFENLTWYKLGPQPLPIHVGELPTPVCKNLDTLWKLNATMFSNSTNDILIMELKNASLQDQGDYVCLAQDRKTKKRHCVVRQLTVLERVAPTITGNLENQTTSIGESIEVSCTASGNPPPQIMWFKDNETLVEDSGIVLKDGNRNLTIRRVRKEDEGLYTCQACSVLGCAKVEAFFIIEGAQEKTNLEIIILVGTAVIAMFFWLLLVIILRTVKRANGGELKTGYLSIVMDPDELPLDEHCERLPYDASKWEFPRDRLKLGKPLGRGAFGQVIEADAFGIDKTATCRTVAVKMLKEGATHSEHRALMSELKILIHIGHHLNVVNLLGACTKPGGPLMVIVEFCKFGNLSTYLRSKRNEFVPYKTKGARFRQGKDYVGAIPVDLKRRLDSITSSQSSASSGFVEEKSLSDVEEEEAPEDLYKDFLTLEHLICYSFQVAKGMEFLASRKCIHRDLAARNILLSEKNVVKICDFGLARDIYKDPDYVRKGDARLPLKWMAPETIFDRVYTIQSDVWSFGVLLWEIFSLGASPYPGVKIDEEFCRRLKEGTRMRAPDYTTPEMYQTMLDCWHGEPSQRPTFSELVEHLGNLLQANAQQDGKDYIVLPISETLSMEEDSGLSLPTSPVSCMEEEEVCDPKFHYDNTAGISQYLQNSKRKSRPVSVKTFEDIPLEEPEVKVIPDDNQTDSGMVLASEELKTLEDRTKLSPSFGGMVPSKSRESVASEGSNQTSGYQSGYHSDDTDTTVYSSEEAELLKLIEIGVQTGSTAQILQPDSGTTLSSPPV

Chain of Sigma intracellular receptor 2 (Q5BJF2 whole entry): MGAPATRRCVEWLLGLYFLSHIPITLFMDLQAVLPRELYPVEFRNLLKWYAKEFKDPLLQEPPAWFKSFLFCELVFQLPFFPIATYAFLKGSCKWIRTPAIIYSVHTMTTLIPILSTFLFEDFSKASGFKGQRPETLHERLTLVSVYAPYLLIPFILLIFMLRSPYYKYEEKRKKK
Chain of Testis-specific serine/threonine-protein kinase 1 (Homo sapiens) (Q9BXA7 whole entry, canonical isoform): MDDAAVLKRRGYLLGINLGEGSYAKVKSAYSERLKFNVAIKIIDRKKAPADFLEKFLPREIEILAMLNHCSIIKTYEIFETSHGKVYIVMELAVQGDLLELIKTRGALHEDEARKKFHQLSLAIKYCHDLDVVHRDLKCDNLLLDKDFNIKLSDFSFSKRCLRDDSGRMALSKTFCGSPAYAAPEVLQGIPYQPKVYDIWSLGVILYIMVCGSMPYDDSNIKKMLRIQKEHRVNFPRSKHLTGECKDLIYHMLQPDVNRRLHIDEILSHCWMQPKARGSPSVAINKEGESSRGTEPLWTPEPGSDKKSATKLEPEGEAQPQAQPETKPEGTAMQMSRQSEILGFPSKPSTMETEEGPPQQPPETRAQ
Chain of Beta-adrenergic receptor kinase 1 (Homo sapiens) (P25098 whole entry): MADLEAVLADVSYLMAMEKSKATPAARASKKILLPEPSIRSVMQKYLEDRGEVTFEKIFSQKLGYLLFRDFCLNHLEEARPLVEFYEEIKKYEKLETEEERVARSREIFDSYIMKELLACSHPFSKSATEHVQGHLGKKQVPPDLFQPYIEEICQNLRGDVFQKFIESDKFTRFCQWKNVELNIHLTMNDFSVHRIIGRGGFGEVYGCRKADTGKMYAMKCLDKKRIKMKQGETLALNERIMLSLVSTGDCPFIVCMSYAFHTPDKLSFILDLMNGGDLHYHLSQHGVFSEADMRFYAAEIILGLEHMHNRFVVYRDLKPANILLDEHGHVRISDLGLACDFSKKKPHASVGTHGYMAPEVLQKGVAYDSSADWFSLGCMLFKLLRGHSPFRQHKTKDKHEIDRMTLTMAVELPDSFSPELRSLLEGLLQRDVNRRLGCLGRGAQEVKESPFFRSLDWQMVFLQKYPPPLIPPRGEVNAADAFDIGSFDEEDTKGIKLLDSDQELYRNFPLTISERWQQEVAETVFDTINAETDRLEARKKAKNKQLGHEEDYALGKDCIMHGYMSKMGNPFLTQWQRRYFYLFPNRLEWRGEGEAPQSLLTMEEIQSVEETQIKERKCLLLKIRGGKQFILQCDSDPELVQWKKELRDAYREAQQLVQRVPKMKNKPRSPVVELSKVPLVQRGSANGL
Chain of Myosin light chain kinase (Homo sapiens) (Q32MK0 whole entry): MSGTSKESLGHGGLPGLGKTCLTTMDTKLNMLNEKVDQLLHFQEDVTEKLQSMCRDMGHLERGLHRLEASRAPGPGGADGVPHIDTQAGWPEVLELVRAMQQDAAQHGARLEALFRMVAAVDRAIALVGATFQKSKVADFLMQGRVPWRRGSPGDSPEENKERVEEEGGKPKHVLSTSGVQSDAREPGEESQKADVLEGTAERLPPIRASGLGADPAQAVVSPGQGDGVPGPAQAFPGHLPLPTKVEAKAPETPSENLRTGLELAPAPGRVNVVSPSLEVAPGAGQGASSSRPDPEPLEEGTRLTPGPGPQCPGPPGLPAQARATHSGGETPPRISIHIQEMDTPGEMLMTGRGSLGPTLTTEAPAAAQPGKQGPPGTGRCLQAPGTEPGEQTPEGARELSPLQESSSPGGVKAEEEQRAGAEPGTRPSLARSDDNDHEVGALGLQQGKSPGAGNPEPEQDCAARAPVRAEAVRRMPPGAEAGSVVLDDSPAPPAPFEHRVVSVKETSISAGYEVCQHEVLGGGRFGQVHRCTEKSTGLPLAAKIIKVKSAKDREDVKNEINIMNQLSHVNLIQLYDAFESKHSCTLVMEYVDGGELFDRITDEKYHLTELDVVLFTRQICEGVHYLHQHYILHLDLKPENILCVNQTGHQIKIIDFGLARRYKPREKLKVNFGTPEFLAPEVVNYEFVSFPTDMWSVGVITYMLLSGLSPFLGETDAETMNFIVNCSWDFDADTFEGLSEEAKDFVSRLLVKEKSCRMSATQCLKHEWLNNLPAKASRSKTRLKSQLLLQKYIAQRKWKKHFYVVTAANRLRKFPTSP
Chain of MAP kinase-activated protein kinase 3 (Homo sapiens) (Q16644 whole entry, looked up): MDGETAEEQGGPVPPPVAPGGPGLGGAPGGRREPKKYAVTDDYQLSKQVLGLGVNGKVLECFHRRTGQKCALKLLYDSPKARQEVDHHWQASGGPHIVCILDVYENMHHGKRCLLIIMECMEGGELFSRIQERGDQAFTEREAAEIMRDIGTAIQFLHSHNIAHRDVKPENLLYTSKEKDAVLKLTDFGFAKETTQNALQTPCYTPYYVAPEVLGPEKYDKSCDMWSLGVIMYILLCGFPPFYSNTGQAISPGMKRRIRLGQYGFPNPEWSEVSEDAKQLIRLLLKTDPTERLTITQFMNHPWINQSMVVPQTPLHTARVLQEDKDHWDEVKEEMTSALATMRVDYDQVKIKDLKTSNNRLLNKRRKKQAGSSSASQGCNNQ
Chain of Calcium/calmodulin-dependent protein kinase type IV (Homo sapiens) (Q16566 whole entry): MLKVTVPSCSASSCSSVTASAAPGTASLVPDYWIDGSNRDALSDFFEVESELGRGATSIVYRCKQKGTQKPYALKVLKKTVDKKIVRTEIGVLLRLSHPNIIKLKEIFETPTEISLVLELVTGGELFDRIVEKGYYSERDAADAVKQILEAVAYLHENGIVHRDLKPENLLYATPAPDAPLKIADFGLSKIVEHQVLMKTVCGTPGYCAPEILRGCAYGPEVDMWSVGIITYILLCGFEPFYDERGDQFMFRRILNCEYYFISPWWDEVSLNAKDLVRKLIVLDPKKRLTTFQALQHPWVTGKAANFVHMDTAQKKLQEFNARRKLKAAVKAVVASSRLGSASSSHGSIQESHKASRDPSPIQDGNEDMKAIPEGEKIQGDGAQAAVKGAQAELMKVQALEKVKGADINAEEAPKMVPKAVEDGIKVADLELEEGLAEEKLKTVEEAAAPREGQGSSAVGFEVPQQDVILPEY
Chain of Histamine H3 receptor (Homo sapiens) (Q9Y5N1 whole entry): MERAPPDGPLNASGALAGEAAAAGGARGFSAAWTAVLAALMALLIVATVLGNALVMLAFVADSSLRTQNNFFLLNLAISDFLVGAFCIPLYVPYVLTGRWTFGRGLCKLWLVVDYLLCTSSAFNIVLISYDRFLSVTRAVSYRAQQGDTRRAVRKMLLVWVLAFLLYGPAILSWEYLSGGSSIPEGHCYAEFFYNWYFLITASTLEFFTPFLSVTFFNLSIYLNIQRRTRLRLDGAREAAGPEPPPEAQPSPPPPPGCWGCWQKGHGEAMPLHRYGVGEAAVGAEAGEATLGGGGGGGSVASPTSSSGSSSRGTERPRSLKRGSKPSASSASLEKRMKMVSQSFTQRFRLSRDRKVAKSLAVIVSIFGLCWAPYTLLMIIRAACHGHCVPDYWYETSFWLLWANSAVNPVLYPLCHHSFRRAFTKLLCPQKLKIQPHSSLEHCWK
Chain of Serine/threonine-protein kinase 16 (Homo sapiens) (O75716 whole entry): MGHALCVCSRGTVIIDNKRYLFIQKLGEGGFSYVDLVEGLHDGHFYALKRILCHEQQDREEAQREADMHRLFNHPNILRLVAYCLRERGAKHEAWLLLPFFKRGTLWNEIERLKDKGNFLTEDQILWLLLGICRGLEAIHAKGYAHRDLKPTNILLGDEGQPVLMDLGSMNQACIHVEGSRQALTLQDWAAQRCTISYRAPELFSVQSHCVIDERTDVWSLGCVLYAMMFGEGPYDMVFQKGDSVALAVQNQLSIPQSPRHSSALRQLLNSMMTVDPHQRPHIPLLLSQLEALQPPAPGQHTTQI

Question: What does the source list for `O=C1c2ccc(Nc3ccc(F)cc3F)cc2CCc2ccc(OC[C@H](O)CO)cc21` [Skepinone-L]?
Answer: % Residual activity with Skepinone-L [1]: 94%; % Residual activity with Skepinone-L [2]: 99%; % Residual activity with Skepinone-L [3]: 116%; % Residual activity with Skepinone-L [4]: 90%; % Residual activity with Skepinone-L [5]: 73%; % Residual activity with Skepinone-L [6]: 111%; % Residual activity with Skepinone-L [7]: 108%; % Residual activity with Skepinone-L [8]: 91%; % Residual activity with Skepinone-L [9]: 107%; % Residual activity with Skepinone-L [10]: 135%; IC50 [11]: 0.0402 µM (active); % Residual activity with Skepinone-L [12]: 109%; % Residual activity with Skepinone-L [13]: 89%; pKi ([14]; read-out: Ki): 5.47; Ki ([14]; read-out: pKi (converted)): 3.24 µM; % Residual activity with Skepinone-L [15]: 0%; % Residual activity with Skepinone-L [16]: 86%; % Residual activity with Skepinone-L [17]: 107%; % Residual activity with Skepinone-L [18]: 113%; % Residual activity with Skepinone-L [19]: 94%; inhibition [20]: 45.5%; % Residual activity with Skepinone-L [21]: 83%; inhibition [22]: 30.4%; % Residual activity with Skepinone-L [23]: 102%; % Residual activity with Skepinone-L [24]: 87%; % Residual activity with Skepinone-L [25]: 95%; % Residual activity with Skepinone-L [26]: 128%; inhibition [27]: -7.71%; % Residual activity with Skepinone-L [28]: 58%; % Residual activity with Skepinone-L [29]: 110%; % Residual activity with Skepinone-L [30]: 102%; inhibition [31]: 10.8%; % Residual activity with Skepinone-L [32]: 111%; % Residual activity with Skepinone-L [33]: 96%; % Residual activity with Skepinone-L [34]: 104%; % Residual activity with Skepinone-L [35]: 56%; % Residual activity with Skepinone-L [36]: 95%; % Residual activity with Skepinone-L [37]: 108%; inhibition [38]: 10.3%; % Residual activity with Skepinone-L [39]: 82%; % Residual activity with Skepinone-L [40]: 85%; % Residual activity with Skepinone-L [41]: 96%; % Residual activity with Skepinone-L [42]: 93%; % Residual activity with Skepinone-L [43]: 83%; % Residual activity with Skepinone-L [44]: 121%; inhibition [45]: 10.9%; % Residual activity with Skepinone-L [46]: 85%; % Residual activity with Skepinone-L [47]: 88%; % Residual activity with Skepinone-L [48]: 90%; % Residual activity with Skepinone-L [49]: 91%
